# Experimental data: ChEMBL document CHEMBL4000244, “Probing A-form DNA: A fluorescent aminosugar probe and dual recognition by anthraquinone-neomycin conjugates” (Bioorg Med Chem, 2017)
# Legend:
# [1] = Binding affinity to 5'-CCGCGGCG-3' DNA hairpin assessed as change in fluorescence intensity at 1 uM after 45 mins by fluorescence quenching analysis relative to control
# [2] = Binding affinity to 5'-GGCGCGGG-3' DNA hairpin assessed as change in fluorescence intensity at 1 uM after 45 mins by fluorescence quenching analysis relative to control
# [3] = Binding affinity to 5'-GCGCCCCG-3' DNA hairpin assessed as change in fluorescence intensity at 1 uM after 45 mins by fluorescence quenching analysis relative to control
# [4] = Binding affinity to 5'-CGCCGCGG-3' DNA hairpin assessed as change in fluorescence intensity at 1 uM after 45 mins by fluorescence quenching analysis relative to control
# [5] = Binding affinity to 5'-CGGGGGCG-3' DNA hairpin assessed as change in fluorescence intensity at 1 uM after 45 mins by fluorescence quenching analysis relative to control
# [6] = Binding affinity to 5'-CGCCCGCG-3' DNA hairpin assessed as change in fluorescence intensity at 1 uM after 45 mins by fluorescence quenching analysis relative to control
# [7] = Binding affinity to 5'-CGCCCGGG-3' DNA hairpin assessed as change in fluorescence intensity at 1 uM after 45 mins by fluorescence quenching analysis relative to control
# [8] = Binding affinity to 5'-CGCGGCGC-3' DNA hairpin assessed as change in fluorescence intensity at 1 uM after 45 mins by fluorescence quenching analysis relative to control
# [9] = Binding affinity to 5'-GCCCCGCC-3' DNA hairpin assessed as change in fluorescence intensity at 1 uM after 45 mins by fluorescence quenching analysis relative to control
# [10] = Binding affinity to 5'-GCCCGCGC-3' DNA hairpin assessed as change in fluorescence intensity at 1 uM after 45 mins by fluorescence quenching analysis relative to control
# [11] = Binding affinity to 5'-GGCGCGCC-3' DNA hairpin assessed as change in fluorescence intensity at 1 uM after 45 mins by fluorescence quenching analysis relative to control
# [12] = Binding affinity to 5'-CCGGGCGG-3' DNA hairpin assessed as change in fluorescence intensity at 1 uM after 45 mins by fluorescence quenching analysis relative to control
# [13] = Binding affinity to 5'-GCCCCGGC-3' DNA hairpin assessed as change in fluorescence intensity at 1 uM after 45 mins by fluorescence quenching analysis relative to control
# [14] = Binding affinity to 5'-GGCCGGGC-3' DNA hairpin assessed as change in fluorescence intensity at 1 uM after 45 mins by fluorescence quenching analysis relative to control
# [15] = Binding affinity to 5'-CGGCCGCG-3' DNA hairpin assessed as change in fluorescence intensity at 1 uM after 45 mins by fluorescence quenching analysis relative to control
# [16] = Binding affinity to 5'-GGCCGCCC-3' DNA hairpin assessed as change in fluorescence intensity at 1 uM after 45 mins by fluorescence quenching analysis relative to control
# [17] = Binding affinity to 5'-CCCCGGGC-3' DNA hairpin assessed as change in fluorescence intensity at 1 uM after 45 mins by fluorescence quenching analysis relative to control
# [18] = Binding affinity to 5'-CCGCGCCC-3' DNA hairpin assessed as change in fluorescence intensity at 1 uM after 45 mins by fluorescence quenching analysis relative to control
# [19] = Binding affinity to 5'-GGCCCCGC-3' DNA hairpin assessed as change in fluorescence intensity at 1 uM after 45 mins by fluorescence quenching analysis relative to control
# [20] = Binding affinity to d(G4C4)2 DNA major groove assessed as change in electrostatic potential at 10 uM at pH 4.65 to 9.78 by UV-Visible spectrophotometric method
# [21] = Binding affinity to 5'-GGGCGGGC-3' DNA hairpin assessed as change in fluorescence intensity at 1 uM after 45 mins by fluorescence quenching analysis relative to control
# [22] = Binding affinity to 5'-CGGGCCCG-3' DNA hairpin assessed as change in fluorescence intensity at 1 uM after 45 mins by fluorescence quenching analysis relative to control
# [23] = Binding affinity to 5'-CGGCGGCG-3' DNA hairpin assessed as change in fluorescence intensity at 1 uM after 45 mins by fluorescence quenching analysis relative to control
# [24] = Binding affinity to 5'-CGCCGCCC-3' DNA hairpin assessed as change in fluorescence intensity at 1 uM after 45 mins by fluorescence quenching analysis relative to control
# [25] = Binding affinity to 5'-GCCGCGCC-3' DNA hairpin assessed as change in fluorescence intensity at 1 uM after 45 mins by fluorescence quenching analysis relative to control
# [26] = Binding affinity to 5'-GGGGCGCC-3' DNA hairpin assessed as change in fluorescence intensity at 1 uM after 45 mins by fluorescence quenching analysis relative to control
# [27] = Binding affinity to 5'-CCCCCCCG-3' DNA hairpin assessed as change in fluorescence intensity at 1 uM after 45 mins by fluorescence quenching analysis relative to control
# [28] = Binding affinity to 5'-GGGGGGGG-3' DNA hairpin assessed as change in fluorescence intensity at 1 uM after 45 mins by fluorescence quenching analysis relative to control
# [29] = Binding affinity to 5'-GCCGGGGC-3' DNA hairpin assessed as change in fluorescence intensity at 1 uM after 45 mins by fluorescence quenching analysis relative to control
# [30] = Binding affinity to 5'-GGGGCGGG-3' DNA hairpin assessed as change in fluorescence intensity at 1 uM after 45 mins by fluorescence quenching analysis relative to control
# [31] = Binding affinity to 5'-CGGCCCGG-3' DNA hairpin assessed as change in fluorescence intensity at 1 uM after 45 mins by fluorescence quenching analysis relative to control
# [32] = Binding affinity to 5'-GCGGCCGC-3' DNA hairpin assessed as change in fluorescence intensity at 1 uM after 45 mins by fluorescence quenching analysis relative to control
# [33] = Binding affinity to 5'-GGCCGGGG-3' DNA hairpin assessed as change in fluorescence intensity at 1 uM after 45 mins by fluorescence quenching analysis relative to control
# [34] = Binding affinity to 5'-CCGGGCCC-3' DNA hairpin assessed as change in fluorescence intensity at 1 uM after 45 mins by fluorescence quenching analysis relative to control
# [35] = Binding affinity to 5'-CCCCGCCG-3' DNA hairpin assessed as change in fluorescence intensity at 1 uM after 45 mins by fluorescence quenching analysis relative to control
# [36] = Binding affinity to 5'-GGCGCCGC-3' DNA hairpin assessed as change in fluorescence intensity at 1 uM after 45 mins by fluorescence quenching analysis relative to control
smiles,measurement,setting,value
NCC1O[C@H](O[C@H]2[C@@H](O)[C@H](O[C@@H]3[C@@H](O)[C@H](N)C[C@H](N)[C@H]3O[C@H]3O[C@H](CN)[C@@H](O)[C@H](O)[C@H]3N)O[C@@H]2CSCCNC(=O)CCSCC(=O)Nc2ccc(-c3c4ccc(=O)cc-4oc4cc(O)ccc34)c(C(=O)O)c2)[C@H](N)[C@@H](O)[C@@H]1O (stereo partly specified),Activity,[1],50.1%
same,Activity,[2],46.2%
same,Activity,[3],44.1%
same,Activity,[4],49.8%
same,Activity,[5],41.1%
same,Activity,[6],45.7%
same,Activity,[7],47.2%
same,Activity,[8],52.5%
same,Activity,[9],40.2%
same,Activity,[10],40.4%
same,Activity,[11],49%
same,Activity,[12],50.1%
same,Activity,[13],28.6%
same,Activity,[14],45.6%
same,Activity,[15],48.6%
same,Activity,[16],37.9%
same,Activity,[17],43%
same,Activity,[18],52.4%
same,Activity,[19],21.3%
same,Activity,[20],-1.01 kT/e
same,Activity,[21],44.1%
same,Activity,[22],41.3%
same,Activity,[23],46.5%
same,Activity,[24],44.6%
same,Activity,[25],48.8%
same,Activity,[26],51.4%
same,Activity,[27],19.9%
same,Activity,[28],27.2%
same,Activity,[29],43.2%
same,Activity,[30],43.6%
same,Activity,[31],54.4%
same,Activity,[32],54.5%
same,Activity,[33],38.1%
same,Activity,[34],38.9%
same,Activity,[35],41.4%
same,Activity,[36],48.4%
